Results published in ChEMBL document CHEMBL3044631, “Synthesis of 2-[4,5-dimethyl-1-(phenylamino)-1H-imidazol-2-ylthio]-N-(thiazole-2-yl)acetamide derivatives and their anticancer activities” (2013).

Key:
Assay type in all cases: functional
RPMI-8226 = assay: Anticancer activity against Homo sapiens (human) RPMI8226 cells after 48 hr by SRB assay; details: RPMI-8226, 48 h; for CC50: read-out: LC50 (the source's name)
SR = assay: Anticancer activity against Homo sapiens (human) SR cells after 48 hr by SRB assay; details: for CC50: read-out: LC50 (the source's name)
NCI-H226 = assay: Anticancer activity against Homo sapiens (human) NCI-H226 cells after 48 hr by SRB assay; details: NCI-H226, 48 h
SNB-75 = assay: Anticancer activity against Homo sapiens (human) SNB75 cells after 48 hr by SRB assay; details: SNB-75, 48 h
HOP-92 = assay: Anticancer activity against Homo sapiens (human) HOP92 cells after 48 hr by SRB assay; details: HOP-92, 48 h; for CC50: read-out: LC50 (the source's name)
PC-3 = assay: Anticancer activity against Homo sapiens (human) PC3 cells after 48 hr by SRB assay; details: PC-3, 48 h
786-0 = assay: Anticancer activity against Homo sapiens (human) 786-0 cells after 48 hr by SRB assay; details: 786-0, 48 h
SW-620 = assay: Anticancer activity against Homo sapiens (human) SW620 cells after 48 hr by SRB assay; details: SW-620, 48 h
SK-MEL-28 = assay: Anticancer activity against Homo sapiens (human) SK-MEL-28 cells after 48 hr by SRB assay; details: SK-MEL-28, 48 h
T47D = assay: Anticancer activity against Homo sapiens (human) T47D cells after 48 hr by SRB assay; details: for CC50: read-out: LC50 (the source's name)
HCC 2998 = assay: Anticancer activity against Homo sapiens (human) HCC2998 cells after 48 hr by SRB assay; details: HCC 2998, 48 h
MCF7 = assay: Anticancer activity against Homo sapiens (human) MCF7 cells after 48 hr by SRB assay; details: MCF7, 48 h; for CC50: read-out: LC50 (the source's name)
CCRF-CEM = assay: Anticancer activity against Homo sapiens (human) CCRF-CEM cells after 48 hr by SRB assay
RXF 393 = assay: Anticancer activity against Homo sapiens (human) RXF393 cells after 48 hr by SRB assay; details: RXF 393, 48 h

Q: Which results are given for Cc1nc(SCC(=O)Nc2nc(-c3ccc(Cl)cc3)cs2)n(Nc2ccccc2)c1C?
A: GI50 (RPMI-8226): 3.55 µM; TGI (RPMI-8226): > 100 µM; CC50 (RPMI-8226): > 100 µM; GI50 (SR): 3.81 µM; TGI (SR): > 100 µM; CC50 (SR): > 100 µM; GI50 (NCI-H226): 3.37 µM; LC50 (NCI-H226): 93.9 µM; TGI (NCI-H226): 18.8 µM; GI50 (SNB-75): 3.48 µM; LC50 (SNB-75): 49.3 µM; TGI (SNB-75): 16.2 µM; GI50 (HOP-92): 1.61 µM; TGI (HOP-92): 6.89 µM; CC50 (HOP-92): 38.9 µM; GI50 (PC-3): 2.34 µM; LC50 (concentration killing 50% of cells) (PC-3): 38.4 µM; TGI (PC-3): 11 µM; GI50 (786-0): 3.6 µM; LC50 (lethal concentration 50) (786-0): 38.9 µM; TGI (786-0): 13.7 µM; GI50 (SW-620): 5.5 µM; LC50 (concentration killing 50% of cells) (SW-620): 74.6 µM; TGI (SW-620): 22.9 µM; GI50 (SK-MEL-28): 10.1 µM; LC50 (SK-MEL-28): 59.7 µM; TGI (SK-MEL-28): 24.6 µM; GI50 (T47D): 1.4 µM; TGI (T47D): 5.24 µM; CC50 (T47D): 34.6 µM; GI50 (HCC 2998): 10.6 µM; LC50 (HCC 2998): 82.6 µM; TGI (HCC 2998): 29.5 µM; GI50 (MCF7): 2.94 µM; TGI (MCF7): 11.4 µM; CC50 (MCF7): 52.2 µM; GI50 (CCRF-CEM): 5.49 µM; LC50 (concentration killing 50% of cells) (CCRF-CEM): > 100 µM; TGI (CCRF-CEM): > 100 µM; GI50 (RXF 393): 2.97 µM; LC50 (50% lethal concentration) (RXF 393): 26.8 µM; TGI (RXF 393): 7.33 µM

Q: Which results are given for Cc1ccc(Nn2c(SCC(=O)Nc3nc(-c4ccccc4)cs3)nc(C)c2C)cc1?
A: GI50 (SNB-75): 2.81 µM; LC50 (SNB-75): > 100 µM; TGI (SNB-75): > 100 µM; GI50 (786-0): 4.41 µM; LC50 (lethal concentration 50) (786-0): > 100 µM; TGI (786-0): > 100 µM; GI50 (SW-620): 8.03 µM; LC50 (concentration killing 50% of cells) (SW-620): > 100 µM; TGI (SW-620): > 100 µM; GI50 (T47D): 1.85 µM; TGI (T47D): 10.4 µM; CC50 (T47D): > 100 µM

Q: How did the GI50 (RPMI-8226) turn out when COc1ccc(Nn2c(SCC(=O)Nc3nc(-c4ccc(Cl)cc4)cs3)nc(C)c2C)cc1 was run?
A: 5.8 µM

Q: What about the TGI (RPMI-8226) of the same compound?
A: > 100 µM

Q: And the CC50 (RPMI-8226)?
A: > 100 µM

Q: What about the GI50 (SR) of the same compound?
A: 7.02 µM

Q: What about the TGI (SR) of the same compound?
A: > 100 µM

Q: What about the CC50 (SR) of the same compound?
A: > 100 µM

Q: What about the GI50 (NCI-H226) of the same compound?
A: 3.26 µM

Q: And the LC50 (NCI-H226)?
A: > 100 µM

Q: And the TGI (NCI-H226)?
A: > 100 µM

Q: What about the GI50 (SNB-75) of the same compound?
A: 4.8 µM

Q: And the LC50 (SNB-75)?
A: > 100 µM

Q: What about the TGI (SNB-75) of the same compound?
A: > 100 µM

Q: What about the GI50 (HOP-92) of the same compound?
A: 2.42 µM

Q: And the TGI (HOP-92)?
A: 7.8 µM

Q: What about the CC50 (HOP-92) of the same compound?
A: > 100 µM

Q: And the GI50 (PC-3)?
A: 2.65 µM

Q: What about the LC50 (concentration killing 50% of cells) (PC-3) of the same compound?
A: > 100 µM

Q: And the TGI (PC-3)?
A: > 100 µM

Q: What about the GI50 (786-0) of the same compound?
A: 3.46 µM

Q: And the LC50 (lethal concentration 50) (786-0)?
A: > 100 µM

Q: What about the TGI (786-0) of the same compound?
A: 18.2 µM

Q: What about the GI50 (SW-620) of the same compound?
A: 4.78 µM

Q: What about the LC50 (concentration killing 50% of cells) (SW-620) of the same compound?
A: > 100 µM

Q: And the TGI (SW-620)?
A: > 100 µM

Q: What about the GI50 (SK-MEL-28) of the same compound?
A: 18 µM

Q: And the LC50 (SK-MEL-28)?
A: > 100 µM

Q: What about the TGI (SK-MEL-28) of the same compound?
A: > 100 µM

Q: What about the GI50 (T47D) of the same compound?
A: 1.23 µM

Q: And the TGI (T47D)?
A: 8.04 µM

Q: And the CC50 (T47D)?
A: > 100 µM

Q: What about the GI50 (HCC 2998) of the same compound?
A: 3.07 µM

Q: What about the LC50 (HCC 2998) of the same compound?
A: > 100 µM

Q: And the TGI (HCC 2998)?
A: 9.91 µM

Q: And the GI50 (MCF7)?
A: 3.36 µM

Q: And the TGI (MCF7)?
A: 25.5 µM

Q: And the CC50 (MCF7)?
A: > 100 µM

Q: And the GI50 (CCRF-CEM)?
A: 3.82 µM

Q: And the LC50 (concentration killing 50% of cells) (CCRF-CEM)?
A: > 100 µM

Q: And the TGI (CCRF-CEM)?
A: > 100 µM

Q: What about the GI50 (RXF 393) of the same compound?
A: 3.53 µM

Q: And the LC50 (50% lethal concentration) (RXF 393)?
A: > 100 µM

Q: And the TGI (RXF 393)?
A: 9.64 µM
